In US7691901B2, “Carotenoid analogs or derivatives for the inhibition and amelioration of inflammation” (Cardax Pharmaceuticals Inc., priority 2004, dated 2010):

System: lipid peroxidation products
Test: Thioglycollate/Zymosan-induced peritonitis model: lipid oxidation products in peritoneal lavage by electrospray ionization tandem mass spectrometry
Format: in vivo, mice
Procedure: Thioglycollate/Zymosan—Induced Peritonitis Model: Wild-type mice were administered either 500 mg/kg body weight of disodium disuccinate astaxanthin (ddAst/Cardax™) in an oil emulsion vehicle, or normal saline (NS) as a negative control, by oral gavage at 24 hours intervals beginning 7 days prior to the induction of peritonitis. Peritonitis was induced experimentally as follows: mice were injected intraperitoneally with 1 ml of 4% by weight thioglycollate (Tg) broth, to induce the recruitment of proinflammatory cells to the peritoneum. Either 16 hours or 72 hours after recruitment, approximately half of the mice were injected intraperitoneally with 250 mg/kg body weight of zymosan (Z) for a further 4 hours. The mice not receiving zymosan underwent no further treatment. Peritoneal lavage was performed in control animals or animals treated with (ddAst) 16 hours post Tg injection, or 20 h following the combination of both Tg injection (16 hours) followed by Z injection (4 hours), as indicated (Tg/Z). Peritoneal lavages were performed with phosphate-buffered saline containing antioxidant (0.1 mM butylated hydroxytoluene (BHT)) and 2 mM of the metal chelator diethylenetriamine pentaacetic acid (DTPA) according to established practices in the art. The lavage suspensions were transferred to screw-capped tubes under an argon atmosphere, and immediately centrifuged at 1000 rpm in a table top microcentrifuge for 10 min at 4° C. to remove whole cells and debris. All analyses of lipid peroxidation products was performed on cell-free lavage supernatants. Cell pellets were resuspended in phosphate-buffered saline containing 0.1 mM BHT and 0.1 mM DTPA, and differential cell counts (macrophages, monocytes, eosinophils, lymphocytes, neutrophils, and erythrocytes) were performed on cytospun preparations of isolated cells according to established procedures in the art.
Electrospray ionization tandem mass spectrometry was used to simultaneously quantify individual molecular species of HETEs, HPETEs, the prostaglandin PGF2α, F2-isoprostanoids, hydroxy- and hydroperoxy-octadecadienoic acids (H(P)ODEs), and their precursors, arachidonic acid (AA) and linoleic acid (LA). Additionally, the molar ratios of o-tyrosine (oY/F). were measured.

[1] = 72 Hour Thioglycollate/4 Hour Zymosan, 500 mg/kg oral gavage, P-VALUE 0.772 NP
[2] = 72 Hour Thioglycollate/4 Hour Zymosan, 500 mg/kg oral gavage, P-VALUE 0.862 NP
[3] = 72 Hour Thioglycollate/4 Hour Zymosan
[4] = 72 Hour Thioglycollate, 500 mg/kg oral gavage, P-VALUE 0.117
[5] = 72 Hour Thioglycollate, 500 mg/kg oral gavage, P-VALUE 0.275
[6] = 72 Hour Thioglycollate, 500 mg/kg oral gavage, P-VALUE 0.325 NP
[7] = 72 Hour Thioglycollate, 500 mg/kg oral gavage, P-VALUE 0.349
[8] = 72 Hour Thioglycollate, 500 mg/kg oral gavage, P-VALUE 0.393
[9] = 72 Hour Thioglycollate, 500 mg/kg oral gavage, P-VALUE 0.512
[10] = 72 Hour Thioglycollate, 500 mg/kg oral gavage, P-VALUE 0.524 NP
[11] = 72 Hour Thioglycollate, 500 mg/kg oral gavage, P-VALUE 0.542
[12] = 72 Hour Thioglycollate, 500 mg/kg oral gavage, P-VALUE 0.603 NP
[13] = 72 Hour Thioglycollate, 500 mg/kg oral gavage, P-VALUE 0.726
[14] = 72 Hour Thioglycollate, 500 mg/kg oral gavage, P-VALUE 0.741
[15] = 72 Hour Thioglycollate, 500 mg/kg oral gavage, P-VALUE 0.793
[16] = 72 Hour Thioglycollate, 500 mg/kg oral gavage, P-VALUE 0.862 NP
[17] = 72 Hour Thioglycollate, 500 mg/kg oral gavage, P-VALUE 0.968
[18] = 16 hours Tg/4 hour Z, 500 mg/kg oral gavage
[19] = 16 hours Tg, 500 mg/kg oral gavage
[20] = 72 hours Tg/4 hour Z, 500 mg/kg oral gavage
[21] = Baseline, 500 mg/kg oral gavage, P-VALUE 0.081 NP
[22] = Baseline, 500 mg/kg oral gavage, P-VALUE 0.158 NP
[23] = Baseline, 500 mg/kg oral gavage, P-VALUE 0.271
[24] = Baseline, 500 mg/kg oral gavage, P-VALUE 0.290
[25] = Baseline, 500 mg/kg oral gavage, P-VALUE 0.298 NP
[26] = Baseline, 500 mg/kg oral gavage, P-VALUE 0.302
[27] = Baseline, 500 mg/kg oral gavage, P-VALUE 0.391
[28] = Baseline, 500 mg/kg oral gavage, P-VALUE 0.418
[29] = Baseline, 500 mg/kg oral gavage, P-VALUE 0.471 NP
[30] = Baseline, 500 mg/kg oral gavage, P-VALUE 0.810 NP
[31] = Baseline, 500 mg/kg oral gavage, P-VALUE 0.843
[32] = Baseline, 500 mg/kg oral gavage, P-VALUE 0.920
[33] = Baseline, 500 mg/kg oral gavage, P-VALUE 1.000 NP

## CC1=C(/C=C/C(C)=C/C=C/C(C)=C/C=C/C=C(C)/C=C/C=C(C)/C=C/C2=C(C)C(=O)C(OC(=O)CCC(=O)O)CC2(C)C)C(C)(C)CC(OC(=O)CCC(=O)O)C1=O (stereo not shown) [Cardax, disodium disuccinate astaxanthin]
[1]
  9-HODE MEAN: 4.747 pmol
  9-HODE MEDIAN: 3.683 pmol
[2]
  11-HETE MEAN: 0.837 pmol
  11-HETE MEDIAN: 0.703 pmol
[3]
  5-oxo-ETE (pmol), MEAN: 0.148 pmol
  5-oxo-ETE (ratio), MEAN: 0.063 ratio
  8-iso-F2a (pmol), MEAN: 0.057 pmol
  8-iso-F2a/AA (ratio), MEAN: 0.017 ratio
  5-oxo-ETE (pmol), MEDIAN: 0.116 pmol
  5-oxo-ETE (ratio), MEDIAN: 0.048 ratio
  8-iso-F2a (pmol), MEDIAN: 0.037 pmol
  8-iso-F2a/AA (ratio), MEDIAN: 0.011 ratio
[4]
  9-HETE MEAN: 0.274 pmol
  9-HETE MEDIAN: 0.299 pmol
[5]
  9-HODE/LA (ratio) MEAN: 0.180
  9-HODE/LA (ratio) MEDIAN: 0.109
[6]
  5-HETE MEAN: 0.129 pmol
  5-HETE MEDIAN: 0.082 pmol
[7]
  9-HODE MEAN: 1.831 pmol
  9-HODE MEDIAN: 1.585 pmol
[8]
  13-HODE MEAN: 5.552 pmol
  13-HODE MEDIAN: 5.520 pmol
[9]
  11-HETE/AA (ratio) MEAN: 0.151
  11-HETE/AA (ratio) MEDIAN: 0.132
[10]
  Arachidonic Acid MEAN: 836.27 pmol
  Arachidonic Acid MEDIAN: 758.43 pmol
[11]
  PGF2a/AA (ratio) MEAN: 0.030
  PGF2a/AA (ratio) MEDIAN: 0.033
[12]
  Linoleic Acid MEAN: 14242 pmol
  Linoleic Acid MEDIAN: 10076 pmol
[13]
  Prostaglandin F2α (PGF2α) MEAN: 0.021 pmol
  Prostaglandin F2α (PGF2α) MEDIAN: 0.018 pmol
[14]
  11-HETE MEAN: 0.112 pmol
  11-HETE MEDIAN: 0.100 pmol
[15]
  5-HETE/AA (ratio) MEAN: 0.170
  5-HETE/AA (ratio) MEDIAN: 0.082
[16]
  9-HETE/AA (ratio) MEAN: 0.348
  9-HETE/AA (ratio) MEDIAN: 0.241
[17]
  13-HODE/AA (ratio) MEAN: 0.504
  13-HODE/AA (ratio) MEDIAN: 0.363
72 Hour Thioglycollate
  5-oxo-ETE (pmol), MEAN: 0.026 pmol
  5-oxo-ETE (ratio), MEAN: 0.021 ratio
  8-iso-F2a (pmol), MEAN: 0.010 pmol
  8-iso-F2a/AA (ratio), MEAN: 0.016 ratio
  5-oxo-ETE (pmol), MEDIAN: 0.000 pmol
  5-oxo-ETE (ratio), MEDIAN: 0.000 ratio
  8-iso-F2a (pmol), MEDIAN: 0.000 pmol
  8-iso-F2a/AA (ratio), MEDIAN: 0.000 ratio
72 Tg/4 hour Z, 500 mg/kg oral gavage
  5-oxo-EET (pmol) compared to NS: significant decrease
[18]
  8-iso-F2α (pmol) compared to NS: significant decrease
  8-iso-F2α/AA ratio compared to NS: significant decrease
[19]
  AA (pmol) compared to NS: significantly higher
  LA (pmol) compared to NS: significantly higher
[20]
  5-HETE/AA ratio compared to NS: significant decrease
  5-oxo-EET (ratio) compared to NS: significant decrease
  9-HETE/AA ratio compared to NS: significant decrease
  9-HODE/LA (ratio) compared to NS: significant decrease
  11-HETE/AA ratio compared to NS: significant decrease
  AA (pmol) compared to NS: significantly higher
  LA (pmol) compared to NS: significantly higher
  PGF2α/AA ratio compared to NS: significant decrease
[21]
  PGF2a/AA (ratio) MEAN: 0.033
  PGF2a/AA (ratio) MEDIAN: 0.000
[22]
  Prostaglandin F2α (PGF2α) MEAN: 0.036 pmol
  Prostaglandin F2α (PGF2α) MEDIAN: 0.000 pmol
[23]
  13-HODE MEAN: 26.618 pmol
  13-HODE MEDIAN: 23.554 pmol
[24]
  11-HETE/AA (ratio) MEAN: 0.219
  11-HETE/AA (ratio) MEDIAN: 0.218
[25]
  9-HODE/LA (ratio) MEAN: 0.212
  9-HODE/LA (ratio) MEDIAN: 0.168
[26]
  5-HETE/AA (ratio) MEAN: 0.129
  5-HETE/AA (ratio) MEDIAN: 0.145
[27]
  13-HODE/AA (ratio) MEAN: 2.976
  13-HODE/AA (ratio) MEDIAN: 2.848
[28]
  9-HETE/AA (ratio) MEAN: 0.879
  9-HETE/AA (ratio) MEDIAN: 0.887
[29]
  5-HETE MEAN: 0.096 pmol
  5-HETE MEDIAN: 0.047 pmol
  11-HETE MEAN: 0.121 pmol
  11-HETE MEDIAN: 0.073 pmol
[30]
  9-HETE MEAN: 0.510 pmol
  9-HETE MEDIAN: 0.272 pmol
[31]
  Linoleic Acid MEAN: 8239.5 pmol
  Linoleic Acid MEDIAN: 5875.6 pmol
[32]
  9-HODE MEAN: 1.791 pmol
  9-HODE MEDIAN: 1.579 pmol
[33]
  Arachidonic Acid MEAN: 587.46 pmol
  Arachidonic Acid MEDIAN: 323.65 pmol
Baseline
  5-oxo-ETE (pmol), MEAN: 0.020 pmol
  5-oxo-ETE (ratio), MEAN: 0.033 ratio
  8-iso-F2a (pmol), MEAN: 0.156 pmol
  8-iso-F2a/AA (ratio), MEAN: 0.307 ratio
  5-oxo-ETE (pmol), MEDIAN: 0.000 pmol
  5-oxo-ETE (ratio), MEDIAN: 0.000 ratio
  8-iso-F2a (pmol), MEDIAN: 0.175 pmol
  8-iso-F2a/AA (ratio), MEDIAN: 0.266 ratio
